These are literature values, as cited in patent US20050118222A1, “Product to combat ticks and the process for the product's preparation” (priority 2002, published 2005).

For data set [1] the following is noted: in vivo.
Data set [2] concerns manure-processing insect and coleopterous flora in the soil.

Regarding “(4″R)-4″-epi(Acetylamino)-4″-deoxyavermectin B1 [Eprinomectin]”, where the note is “in vivo”, the “applied drug eliminated through the milk” value is recorded as 0.1%. For the same substance, the “elimination through the milk, times less compared to ivermectin or moxidectin” value (versus ivermectin or moxidectin) is 50 times. Also, in data set [1], the elimination through dung is listed as 85%. Moreover, the “effect on manure-processing insect and coleopterous flora in the soil” value in data set [2] is “does not affect”.
